Experiments:
[1] = the compound itself; not examined in the study; cited from earlier work
tubulin = tubulin aggregation (polymerization) assay, OD 340 nm; format: biochemical
Description: This assay has been described, for example, in Shelanski, M. L., Gaskin, F. and Cantor, C. R. (1973). Microtubule assembly in the absence of added nucleotides. Proc. Natl. Acad. Sci. U.S.A. 70, 765-768; and Lee, J. C. and Timasheff, S. N. (1977). In vitro reconstitution of calf brain microtubules: effects of solution variable. Biochemistry, 16, 1754-1762.
The assay protocol was designed for performing a single assay in a cuvette using a spectrophotometer set at 340 nm in a kinetic mode. HTS-Tubulin was purchased from Cytoskeleton, Inc. and is supplied in multiple vials as lyophilized protein. […]
The tubulin-assembly reaction was carried out by exposing the tubulin in GPEM buffer, at a concentration of 1.5 mg/ml to the following polymerization conditions: (i) a buffer (control), (ii) tubulin alone (2nd control); (iii) taxol, added to a final concentration of 4 μM, and (iv) the M2(3) taxol signal from above, transduced over a 20 minute period at a transduction voltage calculated to produce an approximately 1.693294 mG magnetic field. Change in optical absorption at 340 nm was measured continuously for each sample, and the OD340 data was used to calculate a rate of tubulin polymerization (dA/minute at 340 nm) at each one minute interval during the transduction study.
The Vmax of the reaction was also calculated for each sample at the end of the 20 minute assay period. […]

## CC(=O)O[C@H]1C(=O)[C@@]2(C)[C@H]([C@H](OC(=O)c3ccccc3)[C@]3(O)C[C@H](OC(=O)[C@H](O)[C@@H](NC(=O)c4ccccc4)c4ccccc4)C(C)=C1C3(C)C)[C@]1(OC(C)=O)CO[C@@H]1C[C@@H]2O [taxol]
[1]
  delivery to the brain: poorly deliver to the brain
tubulin; at two minutes, taxol 4 μM, FIG. 16B
  rate of tubulin polymerization (dA/minute at 340 nm): increased significantly
tubulin; taxol at 4 μM, tubulin 1.5 mg/ml in GPEM buffer, end of 20 minute assay, FIG. 17
  Vmax (single composite, maximum rate of reaction over the entire assay): ~1.8

From patent US20100244818A1, “APPARATUS AND METHOD FOR TRANSDUCING AN IN VITRO OR MAMMALIAN SYSTEM WITH A LOW-FREQUENCY SIGNAL” (priority 2006, published 2010)
